Measurements published in article PMC5742831, “Inhibitors of Serine Proteases from a Microcystis sp. Bloom Material Collected from Timurim Reservoir, Israel” (Marine Drugs, 2017).

Assays:
[1] = HPLC mobile phase 0.1% TFA/MeCN, six degradation products from TFA catalyzed hydrolysis of the glutamine and Ahp residues, confirmed by LC-MS of the crude extract
[2] = biological target: chymotrypsin (Bos taurus, UniProt P00766); experiment: Protease inhibition assay, chymotrypsin; format: biochemical; conditions: substrate SGGPNA; Tris buffer pH 7.5; 37 °C; 5 min pre-incubation; kinetic absorbance 405 nm over 30 min; dilutions 0.011 µM to 45.5 µM; 4-parameter logistic fit
Protocol: A sigmoidal curve of the enzyme inhibition versus the concentration of the inhibitor was observed that was fit to the 4-parameters logistic model. Assays were performed in 96-well plate format.
The assay was performed in a Tris buffer (0.6 g TRIS HCl/100 mL H2O, pH 7.5). The enzyme and the substrate Suc-Gly-Gly-phenylalanine-p-nitroanilide (SGGPNA) were dissolved in the buffer at concentrations of 1 mg/mL. To each well were added 100 µL of buffer, 10 µL of enzyme, and 10 µL of sample. The plate was placed in the spectrophotometer at 37 °C. After 5 min, 100 µL of substrate solution was added to each well, and the plate was placed in the spectrophotometer for the kinetic measurement of the absorbance intensity over 30 min at a wavelength of 405 nm.

CC(C)C[C@H]1C(=O)N(C)[C@@H](Cc2ccc(O)cc2)C(=O)N[C@@H](C(C)C)C(=O)O[C@H](C)[C@H](NC(=O)[C@H](Cc2ccc(O)cc2)NC(=O)[C@@H](O)Cc2ccc(O)cc2)C(=O)N[C@@H](CCC(N)=O)C(=O)N[C@H]2CC[C@@H](O)N1C2=O [Micropeptin TR1058 (1)]
Stability under the isolation conditions [1]: extremely unstable | IC50 [2]: 6.78 µM
